The target of assay [1] is T1, BRD4 (BD1) (Homo sapiens, UniProt O60885).
T1 construct: purchased Reaction Biology Company RD-11-157
The assay can be described thus: BRD4 (BD1) binding assay (HTRF). The following applies: BRD4 (D1) with GST tag and biotin-labeled acetylated peptide. Here is the method:
The BRD4 (BD1) biochemical binding assay was carried out by Sundia MediTech Co., Ltd. • Materials and suppliers: • BRD4(D1): Reaction Biology Company; catalog #: RD-11-157; batch #1319 • Positive control compound: AZD5153; Selleck, catalog #, S8344, batch #, 1 • Peptide: GL China; catalog #329934; batch #, P171229-JQ329934 • DMSO: Sigma; catalog #, D8418-1L; batch #, SHBG3288V • OptiPlate-384: PerkinElmer; catalog #6007270, batch #, 8240-17211 • Instruments: • Centrifuge (manufacturer: Eppendorf, model: 5430) • Microplate reader (manufacturer: Perkin Elmer, model: EnVision) • Sonic pipetting system (manufacturer: Labcyte, model: Echo® 550) • In the assay, the HTRF method uses an anti-GST antibody with a cryptate chelate-labeled europium element as the donor, and the d2 or XL665-labeled streptavidin (having high affinity with biotin) as the acceptor to study the interaction between BRD4 (D1) with GST tag and biotin-labeled acetylated peptide. When the donor and acceptor are close to each other due to the binding of BRD4 (D1) to the biotin-labeled peptide, the excitation of the donor triggers fluorescence resonance energy transfer (FRET) to the acceptor, which then emits fluorescence at a specific wavelength (665 nm). • General assay procedure: 20 nL of compound solution was transferred to the 384-well plate by Labcyte Echo® 550 liquid handler, and 5 μL of BRD4 (BD1) solution from Reaction Biology Company, RD-11-157, or the assay buffer was added to each well. After centrifuge for 1 minute and incubating 15 minutes at rt, the 5 μL peptide (GL China, Catalog #329934, Batch, P171229-JQ329934) was added to each well. After centrifuge for 1 minute at 1000 rpm, 10 μL detect solution was added to each well. After incubating for 60 minutes, centrifuging 1 minute, the signals were measured by Microplate reader. Data analysis: The inhibition percentage in the presence of the compound was calculated based on the following formula:
% Inhibition=(Signal_max−Signal sample/Signal_max−Signal_min)×100
Fitting the data in GrphaPad Prism V5.0 software with log(inhibitor) vs. response-Variable slope, the IC50 was obtained.
For orientation: TR-FRET usually uses a lanthanide donor and a delayed reading to cut background.

Assay [2] has as its system MV-4-11. As to the kind of experiment: Cell proliferation assay (Cell Titer-Glo). The following applies: MV-4-11 cells, compound treatment 72 h, CellTiter-Glo. The class given is cell-based. Here is the method: In order to evaluate the activity of the compound on cells, the Cell Titer-Glo assay was used for detection. The cells were incubated in a 37° C. incubator and treated with compounds for 72 hours. At the end of the reaction, the number of living cells in the culture is measured by quantitative determination of ATP. ATP is an indicator of the metabolism of living cells. With Cell Titer-Glo, the luminescence signal produced by cell lysis is proportional to the amount of ATP present, and the amount of ATP is directly proportional to the number of cells in the culture. These signal ratios reflect the cell activity of the compound at that concentration in the well under this condition. • (1) Seeding cells • Trypsinize cells and count cell density with the automated cell counter. • Dilute cell suspension to required density according to seeding density. • Seed 100 ul cells into 96-well plate in growth medium according to the plate map. Medium only is used as background control (Min). • Incubate at 37° C., 5% CO2 overnight. • (2) Compound treatment • Make 200× compound solution in DMSO. • Dilute compounds with growth medium to 3× final concentration by addition of 3 ul 200× compounds to 197 ul growth medium. • Add 50 ul diluted compounds to cells and incubate at 37° C., 5% CO2 for 72 h. • (3) Measurement • Equilibrate the assay plate to room temperature prior to measurement. • Add 40 ul of CellTiter-Glo® Reagent into each well. • Mix contents for 2 minutes on an orbital shaker to induce cell lysis. • Incubate at room temperature for 60 minutes to stabilize luminescent signal. • Record luminescence on Envision. • (4) Data analysis • (1) Using GraphPad Prism 5. • (2) % Inh=(Max signal−Compound signal)/(Max signal−Min signal)×100. • (3) Max signal was obtained from the action of DMSO. • (4) Min signal was obtained from the action of medium only.
(In general: Cellular ATP, detected with luciferase, serves as a proxy for viable cell number.)

Structures are written as SMILES.

As a reminder, the IC50 is the point on the concentration scale where inhibition reaches its midpoint. `Cc1nnn(C)c1-c1cnc2c3nn(C)c(C(C)(C)O)c3n(C(c3ccccc3)C3CCOCC3)c2c1` (racemic) [Example 2, 2-(6-(1,4-Dimethyl-1H-1,2,3-triazol-5-yl)-2-methyl-4-(phenyl(tetrahydro-2H-pyran-4-yl)methyl)-2,4-dihydropyrazolo[3′,4′:4,5]pyrrolo[3,2-b]pyridin-3-yl)propan-2-ol]: the half-inhibitory concentration (IC50) came out at 0.3 nM in assay [1] and 1.48 nM in assay [2] (Homo sapiens, MV4-11, 72 h).
In the same order, the values of `Cc1nnn(C)c1-c1cnc2c3nn(C)c(C(C)(C)O)c3n(C(c3ccccn3)C3CCOCC3)c2c1` (racemic) [Example 6] are 0.61 nM and 1.98 nM.
For `Cc1nnn(C)c1-c1cnc2c3nn(C)c(C(C)(C)O)c3n(C(c3ncccc3F)C3CCOCC3)c2c1` (racemic) [Example 10, 2-(6-(1,4-Dimethyl-1H-1,2,3-triazol-5-yl)-4-((3-fluoropyridin-2-yl)(tetrahydro-2H-pyran-4-yl)methyl)-2-methyl-2,4-dihydropyrazolo[3′,4′:4,5]pyrrolo[3,2-b]pyridin-3-yl)propan-2-ol] the same measures were 0.61 nM and 3.42 nM.
Consider `[2H]C([2H])([2H])n1nc2c3ncc(-c4c(C)nnn4C)cc3n(C(c3ncccc3F)C3CCOCC3)c2c1C(C)(C)O` (racemic) [Example 14, 2-(6-(1,4-Dimethyl-1H-1,2,3-triazol-5-yl)-4-((3-fluoropyridin-2-yl)(tetrahydro-2H-pyran-4-yl)methyl)-2-(methyl-d3)-2,4-dihydropyrazolo[3′,4′:4,5]pyrrolo[3,2-b]pyridin-3-yl)propan-2-ol], for which the IC50 came to 0.53 nM in assay [1] and 1.77 nM in assay [2].
In the same order, the values of `[2H]C([2H])([2H])c1nnn(C)c1-c1cnc2c3nn(C)c(C(C)(C)O)c3n(C(c3ncccc3F)C3CCOCC3)c2c1` (racemic) [Example 18, 2-(4-((3-Fluoropyridin-2-yl)(tetrahydro-2H-pyran-4-yl)methyl)-2-methyl-6-(1-methyl-4-(methyl-d3)-1H-1,2,3-triazol-5-yl)-2,4-dihydropyrazolo[3′,4′:4,5]pyrrolo[3,2-b]pyridin-3-yl)propan-2-ol] are 0.52 nM and 1.94 nM.
For `[2H]C([2H])([2H])c1nnn(C)c1-c1cnc2c3nn(C([2H])([2H])[2H])c(C(C)(C)O)c3n(C(c3ncccc3F)C3CCOCC3)c2c1` (racemic) [Example 22, 2-(4-((3-Fluoropyridin-2-yl)(tetrahydro-2H-pyran-4-yl)methyl)-2-(methyl-d3)-6-(1-methyl-4-(methyl-d3)-1H-1,2,3-triazol-5-yl)-2,4-dihydropyrazolo[3′,4′:4,5]pyrrolo[3,2-b]pyridin-3-yl)propan-2-ol] the same measures were 0.34 nM and 1.4 nM.
In the same order, the values of `Cc1nnn(C)c1-c1cnc2c3nn(C)c(C(C)(C)O)c3n(C(c3ccccc3)C3CCOCC3)c2c1` (single isomer, unassigned) [Example 3, 2-(6-(1,4-Dimethyl-1H-1,2,3-triazol-5-yl)-2-methyl-4-(phenyl(tetrahydro-2H-pyran-4-yl)methyl)-2,4-dihydropyrazolo[3′,4′:4,5]pyrrolo[3,2-b]pyridin-3-yl)propan-2-ol] are 1.8 nM and 36.9 nM.
`Cc1nnn(C)c1-c1cnc2c3nn(C)c(C(C)(C)O)c3n(C(c3ccccc3)C3CCOCC3)c2c1` (single isomer, unassigned) [Example 4, 2-(6-(1,4-Dimethyl-1H-1,2,3-triazol-5-yl)-2-methyl-4-(phenyl(tetrahydro-2H-pyran-4-yl)methyl)-2,4-dihydropyrazolo[3′,4′:4,5]pyrrolo[3,2-b]pyridin-3-yl)propan-2-ol]: the IC50 in assay [1] was determined as 0.18 nM; in assay [2], 1.28 nM.
In the same order, the values of `Cc1nnn(C)c1-c1cnc2c3nn(C)c(C(C)(C)O)c3n(C(c3ncccc3F)C3CCOCC3)c2c1` (single isomer, unassigned) [Example 11, 2-(6-(1,4-Dimethyl-1H-1,2,3-triazol-5-yl)-4-((3-fluoropyridin-2-yl)(tetrahydro-2H-pyran-4-yl)methyl)-2-methyl-2,4-dihydropyrazolo[3′,4′:4,5]pyrrolo[3,2-b]pyridin-3-yl)propan-2-ol] are 6.8 nM and 63.3 nM.
For `Cc1nnn(C)c1-c1cnc2c3nn(C)c(C(C)(C)O)c3n(C(c3ncccc3F)C3CCOCC3)c2c1` (single isomer, unassigned) [Example 12, 2-(6-(1,4-Dimethyl-1H-1,2,3-triazol-5-yl)-4-((3-fluoropyridin-2-yl)(tetrahydro-2H-pyran-4-yl)methyl)-2-methyl-2,4-dihydropyrazolo[3′,4′:4,5]pyrrolo[3,2-b]pyridin-3-yl)propan-2-ol] the same measures were 0.19 nM and 0.52 nM.
In the same order, the values of `[2H]C([2H])([2H])n1nc2c3ncc(-c4c(C)nnn4C)cc3n(C(c3ncccc3F)C3CCOCC3)c2c1C(C)(C)O` (single isomer, unassigned) [Example 15, 2-(6-(1,4-Dimethyl-1H-1,2,3-triazol-5-yl)-4-((3-fluoropyridin-2-yl)(tetrahydro-2H-pyran-4-yl)methyl)-2-(methyl-d3)-2,4-dihydropyrazolo[3′,4′:4,5]pyrrolo[3,2-b]pyridin-3-yl)propan-2-ol] are 4.8 nM and 72.2 nM.
`[2H]C([2H])([2H])n1nc2c3ncc(-c4c(C)nnn4C)cc3n(C(c3ncccc3F)C3CCOCC3)c2c1C(C)(C)O` (single isomer, unassigned) [Example 16, 2-(6-(1,4-Dimethyl-1H-1,2,3-triazol-5-yl)-4-((3-fluoropyridin-2-yl)(tetrahydro-2H-pyran-4-yl)methyl)-2-(methyl-d3)-2,4-dihydropyrazolo[3′,4′:4,5]pyrrolo[3,2-b]pyridin-3-yl)propan-2-ol]: the IC50 was 0.18 nM in assay [1] and 0.49 nM in assay [2].
With `[2H]C([2H])([2H])c1nnn(C)c1-c1cnc2c3nn(C)c(C(C)(C)O)c3n(C(c3ncccc3F)C3CCOCC3)c2c1` (single isomer, unassigned) [Example 19, 2-(4-((3-Fluoropyridin-2-yl)(tetrahydro-2H-pyran-4-yl)methyl)-2-methyl-6-(1-methyl-4-(methyl-d3)-1H-1,2,3-triazol-5-yl)-2,4-dihydropyrazolo[3′,4′:4,5]pyrrolo[3,2-b]pyridin-3-yl)propan-2-ol], the values for the half-maximal inhibitory concentration (IC50) in assay [1] and in assay [2] were 5 nM and 85.3 nM, respectively.
Regarding `[2H]C([2H])([2H])c1nnn(C)c1-c1cnc2c3nn(C)c(C(C)(C)O)c3n(C(c3ncccc3F)C3CCOCC3)c2c1` (single isomer, unassigned) [Example 20, 2-(4-((3-Fluoropyridin-2-yl)(tetrahydro-2H-pyran-4-yl)methyl)-2-methyl-6-(1-methyl-4-(methyl-d3)-1H-1,2,3-triazol-5-yl)-2,4-dihydropyrazolo[3′,4′:4,5]pyrrolo[3,2-b]pyridin-3-yl)propan-2-ol], the IC50 in assay [1] came out at 0.17 nM; in assay [2], 0.81 nM.

The values are drawn from patent US20240124455A1, “TRICYCLIC COMPOUNDS AS ANTICANCER AGENTS” (JINGRUI BIOPHARMA CO., LTD., priority 2021, published 2024).
